For experiment [1], the target named is hNAMPT protein (Homo sapiens (Human), UniProt P43490). Description: NAMPT enzyme assay (TR-FRET/HTRF with BodiPY ligand). Particulars: for inhibition at 1 µM: read-out: Percent Inhibition; for IC50: NAMPT inhibition, IC50 range class. The format is binding. The gist of the method: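 His-tagged hNAMPT with anti-6His-Tb, incubated with compound and BodiPY ligand for 1 h at rt in the dark, in Tris-HCl pH 7.5 buffer with DTT, NaCl, MgCl2 and Tween 20. TR-FRET measured with 320 nm excitation as the 520/486 nm emission ratio. IC50 fitted relative to DMSO controls.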

In experiment [2] the test system is PC3 cells. Description: PC3 growth inhibition (Cell-titer glo, 72 hours). The experiment is classed as cell-based. The following applies: Homo sapiens, PC-3, 72 h, read-out: Percent Viability, PC3 cells, compound concentration 1.667 μM, 72 hours. A digest of the protocol:
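PC3 cells grown in RPMI1640 plated at 8×10^4 cells/ml, incubated overnight, then exposed to compound diluted in AIM serum-free medium for 72 h at 37 °C, 5% CO2. Luminescence by CellTiter-Glo relative to DMSO controls; % viability at single concentration, GI50 or LD50 from concentration-response curves.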

The mark [3] stands for this setting: NAMPT inhibition at compound concentration 1 μM.

Like-named read-outs stand apart in the source and are kept apart here.

Experimental findings from patent US10323018B2 (Millennium Pharmaceuticals, Inc., priority 2015, dated 2019) are described below.

One may read the inhibition as how much of the control response was suppressed. As a reminder, the IC50 is the concentration needed to halve the response being measured. A higher IC50 goes with lower potency.

Sequence of hNAMPT protein (P43490 whole entry): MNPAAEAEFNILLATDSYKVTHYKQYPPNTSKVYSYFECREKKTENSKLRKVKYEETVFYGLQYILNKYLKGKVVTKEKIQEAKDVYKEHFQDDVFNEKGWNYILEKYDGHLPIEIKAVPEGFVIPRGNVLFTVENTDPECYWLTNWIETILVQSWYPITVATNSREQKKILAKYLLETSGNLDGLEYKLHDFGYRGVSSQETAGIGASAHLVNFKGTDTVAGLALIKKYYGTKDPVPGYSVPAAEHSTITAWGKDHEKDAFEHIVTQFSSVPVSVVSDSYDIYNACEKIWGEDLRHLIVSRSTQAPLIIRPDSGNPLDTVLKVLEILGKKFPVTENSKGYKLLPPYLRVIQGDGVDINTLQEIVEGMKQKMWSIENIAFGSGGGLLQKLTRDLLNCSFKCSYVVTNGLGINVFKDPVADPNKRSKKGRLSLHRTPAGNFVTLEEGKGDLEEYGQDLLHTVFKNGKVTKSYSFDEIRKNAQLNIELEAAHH

As for `CCOc1cc(-c2ccc(F)cc2)nc2cc(C(=O)NCCCc3c[nH]nc3C)ccc12` [Compound I-201, 4-ethoxy-2-(4-fluorophenyl)-N-[3-(3-methyl-1H-pyrazol-4-yl)propyl]quinoline-7-carboxamide], the inhibition at 1 µM in experiment [1] (setting [3]) came out at 98%. Besides, in experiment [1], the IC50 was under 10 nM. In addition, the viability at 1.667 µM in experiment [2] turned out to be 3%.
Regarding `CCCc1cc(-c2ccc(F)cc2)nc2cc(C(=O)NCCCc3cc[nH]n3)ccc12` [Compound I-147, 2-(4-fluorophenyl)-4-propyl-N-[3-(1H-pyrazol-3-yl)propyl]quinoline-7-carboxamide], the inhibition at 1 µM in experiment [1] (setting [3]) turned out to be 92%. The same molecule registered an IC50 in experiment [1] of 50 to 100 nM. Moreover, the viability at 1.667 µM in experiment [2] was 2%.
In the case of `CCOc1cc(-c2ccc(F)cc2OC)nc2cc(C(=O)NCc3ccn4ncnc4c3)ccc12` [Compound I-85, 4-ethoxy-2-(4-fluoro-2-methoxyphenyl)-N-([1,2,4]triazolo[1,5-a]pyridin-7-ylmethyl)quinoline-7-carboxamide], in experiment [1] (setting [3]), the inhibition at 1 µM amounted to 100%. For the same molecule, in experiment [1], the half-maximal inhibitory concentration (IC50) was under 10 nM. Further, in experiment [2], the viability at 1.667 µM worked out at 2%.
Take `CCOc1cc(-c2ccc(C)nc2)nc2cc(C(=O)NCCCc3nnc[nH]3)ccc12` [Compound I-173, 4-ethoxy-2-(6-methylpyridin-3-yl)-N-[3-(4H-1,2,4-triazol-3-yl)propyl]quinoline-7-carboxamide]: the inhibition at 1 µM in experiment [1] (setting [3]) amounted to 98%. This molecule returned an IC50 in experiment [1] of 10 to 50 nM. Also, the viability at 1.667 µM in experiment [2] worked out at 2%.
As to `COCCOCc1nc(-c2ccc(Cl)cc2)nc2cc(C(=O)NCCCc3nnc[nH]3)ccc12` [Compound I-64, N-(3-(4H-1,2,4-yriazol-3-yl)propyl)-2-(4-chlorophenyl)-4-((2-methoxyethoxy)methyl)quinazoline-7-carboxamide], the inhibition at 1 µM in experiment [1] (setting [3]) came to 91%. Also, the IC50 in experiment [1] lay in the range of 50 to 100 nM. Moreover, the viability at 1.667 µM in experiment [2] was 1%.
With `CCOc1cc(-c2ccc(F)cc2)nc2cc(C(=O)NCCc3nnc(N)[nH]3)ccc12` [Compound I-142, N-[2-(5-amino-4H-1,2,4-triazol-3-yl)ethyl]-4-ethoxy-2-(4-fluorophenyl)quinoline-7-carboxamide], the inhibition at 1 µM in experiment [1] (setting [3]) is 89%. The molecule also had an IC50 in experiment [1] of over 100 nM. Besides, the viability at 1.667 µM in experiment [2] is 14%.
The like results for `CCOc1cc(-c2cccnc2OC)nc2cc(C(=O)NCCCc3ccn[nH]3)ccc12` [Compound I-150, 4-ethoxy-2-(2-methoxypyridin-3-yl)-N-[3-(1H-pyrazol-5-yl)propyl]quinoline-7-carboxamide] were, in that order, 95%, 10 to 50 nM and 2%.
Turning to `CCOc1cc(-c2ccc(OC)nc2)nc2cc(C(=O)NCCc3[nH]nnc3C)ccc12` [Compound I-88, 4-ethoxy-2-(6-methoxypyridin-3-yl)-N-[2-(4-methyl-1H-1,2,3-triazol-5-yl)ethyl]quinoline-7-carboxamide], the inhibition at 1 µM in experiment [1] (setting [3]) was determined as 97%. In experiment [1], this molecule returned an IC50 of 10 to 50 nM. Besides, the viability at 1.667 µM in experiment [2] was 1%.
For the molecule `CCOc1nc(-c2ccc(Cl)cc2)nc2cc(C(=O)NCCCc3ncc[nH]3)ccc12` [Compound I-38, 2-(4-chlorophenyl)-4-ethoxy-N-[3-(1H-imidazol-2-yl)propyl]quinazoline-7-carboxamide], the inhibition at 1 µM in experiment [1] (setting [3]) was over 99%. In experiment [1], the IC50 was under 10 nM. Moreover, the viability at 1.667 µM in experiment [2] amounted to 2%.
For `CCOc1cc(-c2ccc(OC)nc2)nc2cc(C(=O)NCCc3c[nH]nn3)ccc12` [Compound I-185, 4-ethoxy-2-(6-methoxypyridin-3-yl)-N-[2-(1H-1,2,3-triazol-4-yl)ethyl]quinoline-7-carboxamide], the inhibition at 1 µM in experiment [1] (setting [3]) was found to be 98%. The molecule also had an IC50 in experiment [1] of 10 to 50 nM. In addition, in experiment [2], the viability at 1.667 µM came to 2%.
On to `CCOc1cc(-c2cc(C)nc(OC)c2)nc2cc(C(=O)NCCCc3nnc[nH]3)ccc12` [Compound I-136, 4-ethoxy-2-(2-methoxy-6-methylpyridin-4-yl)-N-[3-(4H-1,2,4-triazol-3-yl)propyl]quinoline-7-carboxamide], for which, in experiment [1] (setting [3]), the inhibition at 1 µM stood at 98%. Besides, the IC50 in experiment [1] is under 10 nM. In experiment [2], the viability at 1.667 µM was determined as 2%.
On the same counts, the results for `CCOc1cc(SCC)nc2cc(C(=O)NCCCc3ncc[nH]3)ccc12` [Compound I-49, N-(3-(1H-Imidazol-2-yl)propyl)-4-ethoxy-2-(ethylthio)quinoline-7-carboxamide] are 98%, under 10 nM and 5%.
On the same counts, the results for `CCOc1cc(-c2ccc(OC)nc2)nc2cc(C(=O)NCCCc3ccn[nH]3)ccc12` [Compound I-154, 4-ethoxy-2-(6-methoxypyridin-3-yl)-N-[3-(1H-pyrazol-5-yl)propyl]quinoline-7-carboxamide] are 96%, 10 to 50 nM and 3%.
Take `CCOc1cc(-c2cc(C)cnc2OC)nc2cc(C(=O)NCCCc3nnc[nH]3)ccc12` [Compound I-159, 4-ethoxy-2-(2-methoxy-5-methylpyridin-3-yl)-N-[3-(4H-1,2,4-triazol-3-yl)propyl]quinoline-7-carboxamide]: the inhibition at 1 µM in experiment [1] (setting [3]) came to 99%. Moreover, the IC50 in experiment [1] lay within 10 to 50 nM. Besides, the viability at 1.667 µM in experiment [2] is 2%.
With `CCOc1cc(-c2ccc(F)cc2)nc2cc(C(=O)NCCCc3nnc(N)[nH]3)ccc12` [Compound I-220, N-[3-(5-amino-4H-1,2,4-triazol-3-yl)propyl]-4-ethoxy-2-(4-fluorophenyl)quinoline-7-carboxamide], the inhibition at 1 µM in experiment [1] (setting [3]) was 92%. In experiment [1], the IC50 was 50 to 100 nM. Also, the viability at 1.667 µM in experiment [2] was 2%.
For `CCOc1cc(-c2ccc(F)cc2)nc2cc(C(=O)NCCCc3ccc(C)nc3)ccc12` [Compound I-227, 4-ethoxy-2-(4-fluorophenyl)-N-[3-(6-methylpyridin-3-yl)propyl]quinoline-7-carboxamide], in experiment [1] (setting [3]), the inhibition at 1 µM was 100%. Also, the 50% inhibitory concentration (IC50) in experiment [1] is under 10 nM. For the same molecule, the viability at 1.667 µM in experiment [2] came to 6%.
As for `CCOc1cc(-c2ccnc(OC)c2)nc2cc(C(=O)NCCc3c[nH]nc3C)ccc12` [Compound I-100, 4-ethoxy-2-(2-methoxypyridin-4-yl)-N-[2-(3-methyl-1H-pyrazol-4-yl)ethyl]quinoline-7-carboxamide], in experiment [1] (setting [3]), the inhibition at 1 µM stood at 92%. The same molecule yielded a half-inhibitory concentration (IC50) in experiment [1] of 50 to 100 nM. For the same molecule, the viability at 1.667 µM in experiment [2] stood at 2%.
For `CCOc1cc(C2=CCOCC2)nc2cc(C(=O)NCCCc3nnc[nH]3)ccc12` [Compound I-140, 2-(3,6-dihydro-2H-pyran-4-yl)-4-ethoxy-N-[3-(4H-1,2,4-triazol-3-yl)propyl]quinoline-7-carboxamide], the inhibition at 1 µM in experiment [1] (setting [3]) is 91%. Moreover, in experiment [1], the IC50 fell in the range of 50 to 100 nM. For the same molecule, the viability at 1.667 µM in experiment [2] amounted to 2%.
Turning to `CCOc1cc(-c2cccnc2)nc2cc(C(=O)NCCCc3nnc[nH]3)ccc12` [Compound I-209, 4-ethoxy-2-(pyridin-3-yl)-N-[3-(4H-1,2,4-triazol-3-yl)propyl]quinoline-7-carboxamide], in experiment [1] (setting [3]), the inhibition at 1 µM was determined as 92%. The IC50 in experiment [1] is 50 to 100 nM. Besides, the viability at 1.667 µM in experiment [2] was determined as 1%.
With `CCSc1nc(-c2ccc(F)cc2)nc2cc(C(=O)NCCCc3ncc[nH]3)ccc12` [Compound I-27, 4-(ethylsulfanyl)-2-(4-fluorophenyl)-N-[3-(1H-imidazol-2-yl)propyl]quinazoline-7-carboxamide], in experiment [1], the half-maximal inhibitory concentration (IC50) was under 10 nM and the inhibition at 1 µM came to 98%. The viability at 1.667 µM in experiment [2] worked out at 1%.
Consider `CCOc1cc(-c2cnc(OC)c(F)c2)nc2cc(C(=O)NCCCc3nnc[nH]3)ccc12` [Compound I-89, 4-ethoxy-2-(5-fluoro-6-methoxypyridin-3-yl)-N-[3-(4H-1,2,4-triazol-3-yl)propyl]quinoline-7-carboxamide], for which the inhibition at 1 µM in experiment [1] (setting [3]) turned out to be 96%. The molecule further returned an IC50 in experiment [1] of 10 to 50 nM. Besides, in experiment [2], the viability at 1.667 µM was 2%.
Regarding `CCOc1cc(C2CC2)nc2cc(C(=O)NCCCc3ncc[nH]3)ccc12` [Compound I-58, N-(3-(1H-Imidazol-2-yl)propyl)-2-cyclopropyl-4-ethoxyquinoline-7-carboxamide], in experiment [1] (setting [3]), the inhibition at 1 µM came to 96%. Moreover, the IC50 in experiment [1] was 10 to 50 nM. In addition, the viability at 1.667 µM in experiment [2] is 1%.
Turning to `CCOc1cc(-c2cncnc2)nc2cc(C(=O)NCCCc3nnc[nH]3)ccc12` [Compound I-208, 4-ethoxy-2-(pyrimidin-5-yl)-N-[3-(4H-1,2,4-triazol-3-yl)propyl]quinoline-7-carboxamide], in experiment [1] (setting [3]), the inhibition at 1 µM is 86%. In addition, in experiment [1], the half-inhibitory concentration (IC50) is over 100 nM. Moreover, in experiment [2], the viability at 1.667 µM was 2%.
For the molecule `CCOc1cc(-c2cn[nH]c2)nc2cc(C(=O)NCCCc3nnc[nH]3)ccc12` [Compound I-205, 4-ethoxy-2-(1H-pyrazol-4-yl)-N-[3-(4H-1,2,4-triazol-3-yl)propyl]quinoline-7-carboxamide], the inhibition at 1 µM in experiment [1] (setting [3]) came to 63%. Also, the IC50 in experiment [1] was over 100 nM. The viability at 1.667 µM in experiment [2] stood at 4%.
Turning to `CCOc1cc(-c2ccnc(OC)c2)nc2cc(C(=O)NCc3ccn4ncnc4c3)ccc12` [Compound I-70, 4-ethoxy-2-(2-methoxypyridin-4-yl)-N-([1,2,4]triazolo[1,5-a]pyridin-7-ylmethyl)quinoline-7-carboxamide], the inhibition at 1 µM in experiment [1] (setting [3]) came out at 99%. In experiment [1], this molecule displayed an IC50 of under 10 nM. In addition, in experiment [2], the viability at 1.667 µM turned out to be 1%.
